From patent US8058243B2, “Method for treating a brain cancer with ifenprodil” (HSC Research and Development Limited Partnership, priority 2006, dated 2011) come the findings set out here.

The assay relates to murine neural precursor cells (neurosphere cultures). In words: HTS of LOPAC library against secondary neurosphere cultures, MTT proliferation assay at 3 μM, day 7 (z score, P value). The format is cell-based, mouse.
Where [1] appears, read: LOPAC library screen, 3 μM, MTT, neurosphere cultures.
The mark [2] stands for this setting: LOPAC primary screen, neurosphere MTT proliferation, 3 μM, day 7.
Where [3] appears, read: yes/no: significantly inhibited neurosphere proliferation in primary screen.
Setting [4] is: yes = significantly inhibited neurosphere proliferation (P<0.01) in the primary screen.
The mark [5] stands for this setting: yes/no: significantly inhibited neurosphere proliferation (P<0.01) in the primary screen.
Setting [6] is: LOPAC library screen, 3 μM, MTT, secondary neurosphere cultures, day 7.
Setting [7] is: yes/no: significantly inhibited neurosphere proliferation (P<0.01) in primary screen.
Where [8] appears, read: LOPAC screen, neurosphere MTT proliferation, 3 μM, day 7.
[9] abbreviates: LOPAC library screen at 3 μM, secondary neurosphere cultures, MTT.
[10] abbreviates: primary LOPAC screen, 3 μM, MTT, neurosphere proliferation.
Setting [11] is: yes/no: significantly inhibited neurosphere proliferation in the primary screen.

Counter-ions that a name gives are not always drawn. Like-named read-outs stand apart in the source and are kept apart here.

For `CC(C)(C)NCC(O)COc1cccc2[nH]c(=O)[nH]c12.Cl` (stereo not drawn) [(B1)-CGP-12177A hydrochloride], the “Z Score” value is on record as −1.611.
With `O=C(O)CCc1nc(-c2ccccc2)c(-c2ccccc2)o1` [Oxaprozin], the “Z Score” value under setting [1] was 0.06616. The same molecule gave a Z score under setting [2] of 0.066. Further, under setting [3], the Activity result is listed as “no”.
Under setting [2], `COCCc1ccc(OCC(O)CNC(C)C)cc1.O=C(O)C(O)C(O)C(=O)O` (racemic) [(±)-Metoprolol (+)-tartate] displayed a Z score of −0.269. The Activity result under setting [4] was “no”.
With `O=C(O)CCCCCCC1C(=O)NC(=O)N1CCC(O)C1CCCCC1` (stereo not drawn) [BW 245C], the “Z Score” value worked out at 1.036. Besides, the Z score under setting [2] was found to be 1.036. The Activity result under setting [3] is listed as “no”.
Regarding `CC(C)NCC(O)COc1cccc2[nH]ccc12` (stereo not drawn) [Pindolol], under setting [1], the “Z Score” value is listed as −0.07895. The Z score under setting [2] was −0.079. Besides, under setting [3], the Activity result is “no”.
Consider `CN(C)CCC=C1c2ccccc2COc2ccccc21` [Doxepin hydrochloride], for which, under “168 h, 3 µM”, the “Z Score” value is on record as −1.012 and the Z score was −1.012. Also, the Activity entry under setting [5] is reported as “no”.
Consider `NC(=O)C1=CN([C@@H]2O[C@H](COP(=O)([O-])OP(=O)([O-])OC[C@H]3O[C@@H](n4cnc5c(N)ncnc54)[C@H](OP(=O)([O-])[O-])[C@@H]3O)[C@@H](O)[C@H]2O)C=CC1.[Na+].[Na+].[Na+].[Na+]` [NADPH tetrasodium], for which the “Z Score” value under setting [1] turned out to be 0.3021. The molecule further came in with a Z score under setting [2] of 0.302. The Activity entry under setting [4] is reported as “no”.
R(−)-Isoproterenol (+)-bitartrate: the “Z Score” value under setting [6] was −1.485. Moreover, the Z score under setting [2] is recorded as −1.485. The Activity entry under setting [7] is “no”.
Oxotremorine sesquifumarate salt: the “Z Score” value turned out to be 0.8552. Also, the Z score under setting [2] was 0.855. Besides, the Activity result under setting [3] was “no”.
For the molecule `CN(N=O)c1cc(O)ccc1O` [Dephostatin], the “Z Score” value worked out at 0.6209. Besides, under setting [8], the Z score worked out at 0.621. Further, the Activity result under setting [7] is “no”.
As for `COC(=O)C1=C(C)NC(C)=C(C(=O)OC)C1c1ccccc1[N+](=O)[O-]` [Nifedipine], under “168 h, 3 µM”, the “Z Score” value is listed as −0.2937 and the Z score was −0.294.
Turning to `CC(=O)O.CNC(=N)NCCC[C@H](N)C(=O)O` [NG-Monomethyl-L-arginine acetate], the “Z Score” value under setting [6] was −1.386. Also, the Z score under setting [2] is −1.386. Also, the Activity entry under setting [4] is on record as “no”.
For the molecule `CC(C)NCC(O)COc1cccc2ccccc12.Cl` (stereo not drawn) [(B1)-Propranolol hydrochloride], the “Z Score” value under setting [1] is reported as 0.3567.
As to `COCCOC(=O)C1=C(C)NC(C)=C(C(=O)OC(C)C)C1c1cccc([N+](=O)[O-])c1` (stereo not drawn) [Nimodipine], the “Z Score” value under setting [9] is listed as −0.8542. Under setting [2], this molecule came in with a Z score of −0.854.
On to `C[C@H]1O[C@@H](n2cc(F)c(=O)[nH]c2=O)[C@H](O)[C@@H]1O` [5-fluoro-5′-deoxyuridine], for which, under setting [1], the “Z Score” value is on record as 0.3787. For the same molecule, the Z score under setting [2] was found to be 0.379. Moreover, the Activity entry under setting [7] was “no”.
Take `CN(C)c1cc2c(Nc3ccc4c(cnn4Cc4ccccc4)c3)ncnc2cn1` [GW2974]: the “Z Score” value is −0.5164. The Z score under setting [2] is −0.516. Besides, the Activity entry under setting [7] is recorded as “no”.
With `COc1ccc2c(c1)c(CC(=O)N1CCOCC1)c(C)n2C(=O)c1ccc(Cl)cc1` [Indomethacin morpholinylamide], under “168 h, 3 µM”, the “Z Score” value is −3.398 and the Z score is listed as −3.398. Besides, the Activity result under setting [5] is given as “yes”.
Regarding `O=C1Nc2ccc(I)cc2/C1=C/c1cc(Br)c(O)c(Br)c1` [GW5074], the “Z Score” value is listed as −0.1619. In addition, under setting [2], the Z score is recorded as −0.162. Moreover, under setting [7], the Activity entry is given as “no”.
For `C[C@H](Cc1ccc2c(c1)OC(C(=O)[O-])(C(=O)[O-])O2)NC[C@H](O)c1cccc(Cl)c1.[Na+].[Na+]` [CL 316,243], the Z score under setting [8] was 0.621. Under setting [7], the Activity entry is given as “no”.
On to `O=C(NCC1CCCCN1)c1cc(OCC(F)(F)F)ccc1OCC(F)(F)F` (stereo not drawn) [Flecainide acetate], for which the “Z Score” value under setting [6] is −1.498.
With `CC1=C(C(=O)O)N2C(=O)[C@@H](NC(=O)[C@H](N)C3=CCC=CC3)[C@H]2SC1` [Cephradine], under setting [1], the “Z Score” value was found to be 0.7112. Further, the Z score under setting [2] came to 0.711. Under setting [5], the Activity entry is “no”.
With `CC(N)(Cc1ccc(O)c(O)c1)C(=O)O` (racemic) [(±)-3-(3,4-dihydroxyphenyl)-2-methyl-DL-alanine], the Z score (168 h, 3 µM) is on record as −1.894. Further, the Activity result under setting [4] is “no”.
For the molecule `Cc1nc2sccn2c(=O)c1CCN1CCC(=C(c2ccc(F)cc2)c2ccc(F)cc2)CC1` [Ritanserin], the “Z Score” value under setting [9] was −0.6957. Moreover, the Z score under setting [2] is −0.696. Also, the Activity result under setting [3] was “no”.
For `COC(=O)[C@H]1[C@H]2C[C@@H]3c4[nH]c5cc(OC)ccc5c4CCN3C[C@H]2C[C@@H](OC(=O)c2cc(OC)c(OC)c(OC)c2)[C@@H]1OC` [Reserpine], the “Z Score” value under setting [9] was −1.023. Under setting [2], this molecule registered a Z score of −1.023. For the same molecule, the Activity entry under setting [4] was “no”.
For `CC(=O)CCCCn1c(=O)c2c(ncn2C)n(C)c1=O` [Pentoxifylline], the “Z Score” value under setting [6] is −1.637. Under setting [2], the Z score is recorded as −1.637. Moreover, the Activity entry under setting [3] was “no”.
As for `CCN1CCC[C@H]1CNC(=O)c1c(O)c(Cl)cc(Cl)c1OC.O=C(O)C(O)C(O)C(=O)O` (racemic) [S(+)-Raclopride L-tartrate], the “Z Score” value (LOPAC library screen at 3 μM, MTT, secondary neurosphere cultures, screened in singlets) came to 1.901. The molecule also had a Z score under setting [2] of 1.901. In addition, under setting [5], the Activity result was “no”.
In the case of `N=C(N)NN` [Aminoguanidine hydrochloride], the “Z Score” value under setting [1] is −0.000731. Under setting [10], this molecule displayed a Z score of −0.001. Further, the Activity entry under setting [11] is “no”.
Turning to `CNC1(C)C2CCC(C2)C1(C)C` (stereo not drawn) [Mecamylamine hydrochloride], under setting [6], the “Z Score” value was −2.108. Further, the Z score under setting [2] is reported as −2.108. For the same molecule, under setting [4], the Activity result is on record as “no”.
Regarding `CC(=O)[C@@]1(O)CC[C@H]2[C@@H]3CCC4=CC(=O)CC[C@]4(C)[C@H]3CC[C@@]21C` [17alpha-hydroxyprogesterone], the “Z Score” value is −0.5783. Moreover, under setting [2], the Z score is on record as −0.578. The Activity entry under setting [7] is given as “no”.
Consider `C[C@]12CC[C@@H]3c4ccc(O)cc4CC[C@H]3[C@@H]1CCC2=O` [Estrone], for which, under setting [1], the “Z Score” value came out at 0.04081. This molecule displayed a Z score under setting [2] of 0.041.
For the molecule `CN(C)CCOC(=O)COc1ccc(Cl)cc1` [Centrophenoxine hydrochloride], the “Z Score” value is −0.3302. Under setting [8], this molecule came in with a Z score of −0.330. The Activity result under setting [7] is “no”.
Take `N#C/C(=C\c1ccc(O)c(O)c1)C(=O)c1ccc(O)c(O)c1` [Tyrphostin AG 538]: the “Z Score” value is listed as −0.3955. For the same molecule, under setting [10], the Z score was −0.395. Moreover, under setting [11], the Activity entry is reported as “no”.
On to `CCCN1CCOC2c3cc(O)ccc3OCC21.Cl` (racemic) [(±)-PD 128,907 hydrochloride], for which, under setting [2], the Z score worked out at 1.164. Also, the Activity entry under setting [3] was “no”.
Turning to `CC(=O)c1c(O)c(C)c(O)c(Cc2c(O)c3c(c(C(=O)/C=C/c4ccccc4)c2O)OC(C)(C)C=C3)c1O` [Rottlerin], the “Z Score” value is listed as 0.3042. Further, the Z score under setting [2] worked out at 0.304. Also, the Activity entry under setting [3] is “no”.
`C[C@](N)(Cc1ccc(O)cc1)C(=O)O` [L-alpha-Methyl-p-tyrosine]: the “Z Score” value was −1.8. This molecule yielded a Z score under setting [2] of −1.800. The Activity result under setting [4] was “no”.
Take `Cc1nc2c(OCc3ccccc3)cccn2c1CC#N` [SCH-28080]: the “Z Score” value came out at 2.107. Under setting [8], this molecule returned a Z score of 2.107. In addition, the Activity result under setting [7] was “no”.
For the molecule `O=C(O)Cc1c[nH]c2ccc(O)cc12` [5-Hydroxyindolacetic acid], the “Z Score” value under setting [6] was −1.301. The molecule also displayed a Z score under setting [2] of −1.301. Besides, under setting [7], the Activity entry is recorded as “no”.
Consider `Nc1ccncc1` [4-Aminopyridine], for which the “Z Score” value under setting [6] is listed as −1.516. The molecule also had a Z score under setting [2] of −1.516. In addition, under setting [3], the Activity result is on record as “no”.
On to `NC(=O)c1cc(N2CC2)c([N+](=O)[O-])cc1[N+](=O)[O-]` [CB 1954], for which the “Z Score” value under setting [9] is −1.07. The Z score under setting [10] was −1.070. The Activity entry under setting [11] is recorded as “no”.
In the case of S(−)-Timolol maleate, the “Z Score” value under setting [9] was −0.7675. The molecule further showed a Z score under setting [2] of −0.767. For the same molecule, the Activity result under setting [3] is recorded as “no”.
For `O=C1Nc2ccccc2/C1=C1/Nc2ccccc2/C1=N\O` [Indirubin-3′-oxime], the “Z Score” value under setting [9] is listed as −0.3965. For the same molecule, the Z score under setting [2] is recorded as −0.397. Moreover, the Activity result under setting [7] was “no”.
Turning to `NS(=O)(=O)c1cc2c(cc1Cl)NCNS2(=O)=O` [Hydrochlorothiazide], the “Z Score” value under setting [9] is reported as −0.212. Further, the Z score under setting [2] is −0.212. The Activity result under setting [7] is “no”.
Take `Cl.Cl.Clc1cccc(N2CCNCC2)c1`: the “Z Score” value was 0.9516.
For `COc1ccc(-n2nc(C(F)(F)F)cc2-c2ccc(Cl)cc2)cc1` [SC-560], the “Z Score” value was found to be 1.113. The molecule also gave a Z score under setting [2] of 1.113.
`N=C(N)NC(=O)Cc1c(Cl)cccc1Cl` [Guanfacine hydrochloride]: the “Z Score” value under setting [1] is 0.9271.
For the molecule `CC1(C)CCC2=C(O1)c1ccccc1C(=O)C2=O` [beta-Lapachone], for the setting “168 h, 3 µM”, the “Z Score” value was −10.43 and the Z score is −10.428. The Activity result under setting [4] was “yes”.
`C#CC(N)CCC(=O)O` (stereo not drawn) [gamma-Acetylinic GABA]: the “Z Score” value is on record as 1.285. Further, the Z score under setting [10] is listed as 1.285. In addition, the Activity entry under setting [11] was “no”.
